{"source": "patent US8785451B2", "about": "“Compounds for the treatment of proliferative disorders” (Synta Pharmaceuticals Corp., priority 2006, dated 2014)", "tested_on": "inducible human Hsp70", "assay": "Hsp70 RNA induction by quantitative PCR analysis", "assay_type": "cell-based", "details": "Ramos B cells, 500 nM compound, 6 hours, Hsp70 RNA relative to gapdh; for fold induction at 0.5 µM: Homo sapiens, read-out: fold induction over DMSO; for % induction relative to Compound X: Compound X set to 100%", "method": "The ability of the compounds of the invention to induce Hsp70 RNA induction by quantitative PCR analysis was examined. Ramos B cells were treated with 500 nM each compound for 6 hours and the RNA was isolated from the cells. Quantitative PCR was performed as described below:\nDetails for Quantitative PCR are as follows:\n500 ng of RNA from each sample was used for cDNA synthesis using iScript cDNA Synthesis Kit (Biorad, Cat#170-8891). 1 ul of cDNA mixture was used with the iQ SYBR Green Supermix (Biorad, Cat#170-8882) to perform quantitative PCR in an iCycler machine (Biorad) using standard protocols. QPCR for each sample/time point was performed in duplicate. The following primers for inducible human Hsp70 and gapdh were used: […]\nCt values were obtained from the iCycler program and used in an equation (2^−ΔΔCT) for determining the amount of target relative to gapdh expression. This compares the relative expression of Hsp70 to the corresponding levels of gapdh in each sample. Duplicate wells were averaged. The amount of N-Malonyl-bis(N′-methyl-N′ thiobenzoylhydrazide) (Compound X) induction of Hsp70 was set to 100% and the percent of induction of Hsp70 by the compounds of the invention was determined relative to 100%.", "data": [{"smiles": "CN(/N=C/c1cccc(/C=N/N(C)C(=S)c2ccccc2)n1)C(=S)c1ccccc1", "note": "[Compound 16, (N′,N″E,N′,N″E)-N′,N″-(pyridine-2,6-diylbis(methan-1-yl-1-ylidene))bis(N-methylbenzothiohydrazide)]", "values": [{"measurement": "fold induction at 0.5 µM", "result": 0.48}, {"measurement": "% induction relative to Compound X", "result": 0.18, "unit": "%"}]}, {"smiles": "CN(/N=C/c1cccc(/C=N/N(C)C(=S)c2ccccc2)c1)C(=S)c1ccccc1", "note": "[Compound 17, (N′,N″E,N′,N″E)-N′,N″-(1,3-phenylenebis(methan-1-yl-1-ylidene))bis(N-methylbenzothiohydrazide)]", "values": [{"measurement": "fold induction at 0.5 µM", "result": 0.54}, {"measurement": "% induction relative to Compound X", "result": 0.20, "unit": "%"}]}, {"smiles": "CN(/N=C1\\CCC/C(=N\\N(C)C(=S)c2ccccc2)C1)C(=S)c1ccccc1", "note": "[Compound 22, (N′,N″E,N′,N″E)-N′,N″-(cyclohexane-1,3-diylidene)bis(N-methylbenzothiohydrazide)]", "values": [{"measurement": "fold induction at 0.5 µM", "result": 0.16}, {"measurement": "% induction relative to Compound X", "result": 0.06, "unit": "%"}]}]}
